This note sets out measurements from patent publication US20150344457A1, “METHODS OF INHIBITING PRMT5” (EPIZYME, INC., priority 2012, published 2015).

pEC50: −log10 of the molar value.

This experiment relates to Z-138 cells. As to the kind of experiment: Z-138 Methylation Assay (In Cell Western for symmetric di-methyl arginine and DNA content). The following applies: Homo sapiens, Table D-2, read-out: ICW EC50. The experiment is classed as cell-based. The method in brief: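 Z-138 cells at 50,000 cells/mL exposed to compound 96 h at 37 °C, then attached to poly-D-lysine plates, fixed with paraformaldehyde and probed with anti-symmetric di-methyl arginine plus DRAQ5 DNA stain. 800/700 nm ratio normalized to DMSO and 3 μM reference controls; IC50 from triplicate wells.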
In the case of `OC(CNc1cc(-c2ccc3ncn(C4COC4)c3c2)ccn1)CN1CCc2ccccc2C1` (centres unmarked) [Compound D265], the pEC50 was 6.00 to 7.00. For `Cc1ncc2ccc(-c3cccc(OCC(O)CN4CCc5ccccc5C4)c3)cn12` (centres unmarked) [Compound D266], the pEC50 is 5.00 to 6.00. The same measure for `OC(COc1cccc(-c2ccc3ncn(C4COC4)c3c2)c1)CN1CCc2ccccc2C1` (centres unmarked) [Compound D269]: 6.00 to 7.00; for `CN1CCN(C(=O)Cn2cnc3ccc(-c4cccc(OCC(O)CN5CCc6ccccc6C5)c4)cc32)CC1` (centres unmarked) [Compound D270]: 6.00 to 7.00; for `Cn1cnc2ccc(-c3cc(NCC(O)CN4CCc5ccccc5C4)n[nH]3)cc21` (centres unmarked) [Compound D271]: 6.00 to 7.00.

For the compound `Cn1cnc2cc(-c3cc(NCC(O)CN4CCc5ccccc5C4)n[nH]3)ccc21` (centres unmarked) [Compound D272], the pEC50 was 6.00 to 7.00.

Consider `CC(=O)N(CC(O)CN1CCc2ccccc2C1)c1cccc(-c2ccc3ncn(C)c3c2)c1` (centres unmarked) [Compound D273], for which the pEC50 was 6.00 to 7.00. `Cn1cnc2ccc(-c3ccnc(NC[C@H](O)CN4CCc5ccccc5C4)c3)cc21` [Compound D275]: the negative-log EC50 (pEC50) is 6.00 to 7.00.

By pEC50 is commonly meant the EC50 on a negative log10 scale, so that one unit is a factor of ten.
